Reference: US10881641B2, “Methods and use of compounds that bind to RelA of NF-kB” (Cedars-Sinai Medical Center, priority 2015, dated 2021)
Entries after “also recorded” stand apart in the source; their conditions may differ.

Tests used:
MDA-MB-231 cells = experiment: xenograft breast cancer model, tumor growth; type: in vivo, athymic mice; settings: 25 mg/kg/day IP for 4 weeks, compared to vehicle, N=6, FIG. 3
Protocol: Mice were administrated 25 mg/kg/day of CRL1101 or vehicle IP, as indicated by arrows. Results are given as mean tumor volume +− s.e. […] N=6. Therapeutic efficacy of CRL1101 was tested in xenograft breast cancer model. Briefly, triple-negative breast cancer cells, MDA-MB-231 were used to grow tumor in athymic mice. Mice were treated with 25 mg/kg/day, IP for 4 weeks. The control group was treated with vehicle.

RelA(p65) = molecular target: T1, RelA(p65) (Homo sapiens, UniProt Q04206); experiment: nuclear localization of RelA by immunofluorescent staining; type: cell-based; settings: TNBC cell lines, 20 mM CRL1101 in 1% DMSO, 45 minutes, FIG. 2
T1 construct: endogenous in cells
T1 sequence (Q04206 whole entry): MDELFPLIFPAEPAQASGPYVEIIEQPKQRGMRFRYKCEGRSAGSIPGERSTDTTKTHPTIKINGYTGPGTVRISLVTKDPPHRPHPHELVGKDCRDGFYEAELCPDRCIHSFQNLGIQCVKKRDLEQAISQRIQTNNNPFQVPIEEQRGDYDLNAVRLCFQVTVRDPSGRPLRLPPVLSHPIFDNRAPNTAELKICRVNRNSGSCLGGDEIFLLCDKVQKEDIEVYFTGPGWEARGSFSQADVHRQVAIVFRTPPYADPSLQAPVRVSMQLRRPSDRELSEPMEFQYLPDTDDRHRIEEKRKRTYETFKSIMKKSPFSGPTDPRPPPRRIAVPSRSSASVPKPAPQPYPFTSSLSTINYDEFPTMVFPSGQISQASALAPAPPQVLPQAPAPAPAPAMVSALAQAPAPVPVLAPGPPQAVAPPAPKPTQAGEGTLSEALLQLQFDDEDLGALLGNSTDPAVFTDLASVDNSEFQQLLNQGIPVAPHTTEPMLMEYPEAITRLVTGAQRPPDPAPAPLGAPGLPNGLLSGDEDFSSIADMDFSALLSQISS
Protocol: Cells were grown in Dulbecco's modified Eagle medium supplemented with 10% heat-inactivated fetal calf serum and 1% (w/v) penicillin/streptomycin (all purchased from Mediatech Inc, Manassas, Va., USA). Cells were treated with or without 20 mM of CRL1101 in 1% DMSO. Forty five minutes after treatment, cells were fixed with 4% formaldehyde for 10 min and sequentially treated with 0.1% Triton X 100 for 10 min. Cells were blocked in 1% BSA in PBS for 10 min. cells were incubated with anti-Re/A(p65) antibody (1:150, Abeam, Cambridge, UK) in PBS with 1% BSA overnight at 4° C. and a secondary antibody (1:1000 anti-rabbit Alexa 488, Invitrogen, Carlsbad, Calif., USA) for 1 hr in the dark. Analyses were performed using a microscope (Nikon ECLIPSE Ti-U, Nikon, Tokyo, JAPAN).

[1] = test system: triple-negative breast cancer cell lines; experiment: cell proliferation by calorimetric assay (MTT); type: cell-based; settings: FIG. 1A
breast cancer cells = experiment: anchorage independent growth assay (colony formation, clonogenic survival); type: cell-based; settings: 15 uM CRL1101 added after 24 hours, 14 days, soft agarose, FIG. 1B
Protocol: The effects of CRL1101 on clonogenic survival were analyzed. Base layers consisting of growth medium containing 0.53% low-melting point agarose (Invitrogen) were poured onto 6-well plates and allowed to solidify. Cells were seeded at concentration of 10000/well in triplicate in top layers consisting of growth medium containing 0.32% agarose. After 24 hours, 15, uM of CRL1101 was added. Cells were incubated for 14 days to form visible colonies. The colonies were fixed and stained by 0.05% Crystal violet in 50% methanol.

Cl.O=[N+]([O-])c1cc(S(=O)(=O)CCCN2CCOCC2)ccc1F [CRL1101]
tumor growth (mean tumor volume) (MDA-MB-231 cells): significant reduction in tumor growth; also recorded: significant (p<0.001) compared to vehicle
nuclear localization of RelA (RelA(p65)): significantly inhibited
IC50 ([1]; all the three TNBC cell lines, MTT, read-out: IC50, inhibition of TNBC cell line proliferation): 20 µM
cell proliferation ([1]; breast cancer cells): significantly inhibited
colony formation (breast cancer cells): significantly inhibited
